According to patent US20030138433A1, “Autologous adoptive immunotherapy with antigen-specific primed T cells or B cells to promote antigen-specific immune responses with an appropriate cytokine bias” (priority 1999, published 2003):

Columns and labels:
[1] = tested on: Total splenic B cells from C3H, AKR, C3H.lpr and MRL.gld mice; experiment: DNA content of total splenic B cells (saponin/propidium iodide flow cytometry); assay type: cell-based; conditions: B cells from lpr animals compared with normal animals
Protocol: Total splenic B cells were isolated from C3H, AKR, C3H.lpr, and MRL.gld mice. The cells were cultured overnight, harvested, permeabilized in saponin, stained with propidium iodide (PI) which intercalates into DNA, and analyzed by flow cytometry. Because the majority of cells in these preparations are either resting or “growth arrested,” the predominant peak in the untreated samples is the G0/G1 peak (2N DNA).

[2] = tested on: Splenic B cells from AKR mice (resting, in vitro primed, in vivo activated); experiment: Apoptotic death of splenic B cells scored by nucleosome-sized DNA fragments (densitometry); assay type: cell-based; conditions: 10 μM, primed and activated B cells
Protocol: Splenic B cells from AKR mice were separated on a Percoll density gradient and two fractions were collected: small, high-density, resting B cells were obtained from the 1.079<ρ<1.085 g/ml interface and large in vivo activated B cells were collected at the BSS<ρ<1.066 g/ml interface. In vitro primed B cells were obtained by treating resting B cells with 16U recombinant IL-4 and by incubating them overnight on anti-Ig-coated plates. […] Apoptotic death was scored by quantitating the formation of nucleosome-sized DNA fragments by densitometry.

[3] = tested on: L1210 cells; experiment: Methotrexate-induced cell death (flow cytometry, ethidium bromide, DNA fragments); assay type: cell-based, mouse (BALB/c-derived)
Protocol: (§1) L1210 and L1210/DDP cells were treated overnight with 5×10^−7 M methotrexate. […] The forward scatter low populations took up ethidium bromide differentially. The L1210 cells took up a moderate amount of ethidium bromide whereas the L1210/DDP cells took up large amounts. […] This latter phenotype—loss in forward scatter and membrane permeability with no “DNA laddering”—is the hall mark of oncosis.
(§2) L1210 and L1210/DDP cells were treated with a dose of methotrexate that produced moderate amounts of cell death. (Even though L1210/DDP is “methotrexate resistant”, the drug does induce cell death in the cultures; the surviving cells which grow out of the culture are responsible for the lines “drug resistant” appellation).

[4] = tested on: L1210/DDP cells; experiment: as above; assay type: cell-based, mouse (BALB/c-derived)
Protocol: as §1, §2

[5] = tested on: transgenic mice expressing a hen egg lysozyme (HEL)-specific T cell receptor (3A9) crossed with MHC class II transgenic mice; experiment: In vivo antigen pulse of 3A9 x MHC class II transgenic crosses, spleen cell analysis; conditions: 100 μg, six days after injection
Protocol: Mouse spleens were removed after sacrifice and placed into 4 ml PBS, 0.1% BSA in a petri dish. A single cell suspension was prepared using the frosted ends of two microscope slides. Cells were then transferred into a 15 ml tube. The cell suspension was underlayed with 2 ml Ficoll-paque and then centrifuged for 15 min. at 1,000×g. Lymphocytes at the interface were collected and washed 3× with ice-cold 15 ml PBS, 0.1% BSA. Cells were counted and resuspended to 1.6×10^7 viable cells per ml concentration, in RPMI 1640 25 mM HEPES, 50 μM 2-ME, 10% FBS, 1× L-glutamine, 1× sodium pyruvate, 1× nonessential amino acids.
The FACScalibur, flow cytometer was calibrated using Becton-Dickinson calibration beads prior to each four color analysis run. Cells also were analyzed on a FACScan™ with CellQuest software (Becton Dickinson, San Jose, Calif.).
Two different crosses between the mice carrying the different transgenes were generated. Transgenic mice expressing a hen egg lysozyme (HEL)-specific T cell receptor (3A9) were crossed with: (i) the transgenic mice expressing wild type MIIC class II on a null MHC class II background, and (ii) the transgenic mice expressing hybrid MHC class II-MCH class I molecules on a null MHC class II background.
Mice, 4-8 weeks old, generated from the above-identified crosses were pulsed in vivo with an injection of 100 μg total of antigen (HEL). Six days after injenction, the cells from splenes were harvested, as described above, and analyzed. […] Additionally, the “tail” of MHC class II is not necessary for the proper loading and presentation of antigen.

[6] = 3A9×wild type MHC class II on null background

Q: Which “DNA fragmentation, lpr vs normal B cells” value [1] does the source give for `CC[C@H]1CN2CCc3cc(OC)c(OC)cc3[C@@H]2C[C@@H]1C[C@H]1NCCc2cc(OC)c(OC)cc21` [emetine] here?
A: The value was “equally capable of fragmenting DNA”.

Q: With `CC(C)NCC(O)c1ccc(O)c(O)c1` (stereo not drawn) [isoproterenol] as the molecule, how does the induction of apoptosis [2] read?
A: Its induction of apoptosis is “induces apoptosis in all three populations”.

Q: With `CN(Cc1cnc2nc(N)nc(N)c2n1)c1ccc(C(=O)N[C@@H](CCC(=O)O)C(=O)O)cc1` [methotrexate] as the molecule, how does the “mode of cell death” value ([3]; L1210) read?
A: The value was “die by apoptosis”.

Q: What about the DNA fragments ([3]; L1210, 5×10^−7 M overnight) of the same molecule?
A: Its DNA fragments is “produced a ladder of nucleosome sized fragments indicative of apoptosis”.

Q: And the “mode of cell death” value [4]?
A: The value was “die by oncosis”.

Q: And the DNA fragments ([4]; 5×10^−7 M overnight)?
A: The DNA fragments was “did not”.

Q: With hen egg lysozyme [HEL] as the molecule, how does the “T cells in spleen” value ([5]; 3A9×hybrid MHC class II-MHC class I on null background) read?
A: Its value is “a CD4^+ T cell subset missing”.

Q: And the “MHC class II bearing B cells in spleen” value [5, 6]?
A: Its value is “no MHC class II bearing B cells”.

Q: And the “T cells in spleen” value [5, 6]?
A: The value was “normal T cell numbers”.
